Results from patent publication US12559523B2, “Compositions comprising chemerin analogs and methods of use” (OKYO Pharma Limited, priority 2019, dated 2026).
Non-standard residues stand in square brackets, D forms with d. Residues, ends and D or L forms follow the SMILES beside them. *: point of attachment. PEG8 = NCCOCCOCCOCCOCCOCCOCCOCCOCCC(=O)O; Palmitoyl = CCCCCCCCCCCCCCCC(=O)*; Tic = O=C(O)[C@@H]1Cc2ccccc2CN1; Nle = CCCC[C@H](N)C(=O)O; Nva = CCC[C@H](N)C(=O)O

Key:
CD4+ T cells = assay: Immunohistochemistry count of CD4+ T cells in conjunctival epithelium, dry eye; type: in vivo, mouse; settings: FIG. 3 and 5
Procedure: In FIGS. 3 and 5, immunohistochemistry is used to detect CD4+ T cells. Enucleated mouse eyes with intact conjunctiva were suspended in optimal cutting temperature (OCT) compound and flash frozen in liquid nitrogen. Immunohistochemistry was performed on six micrometer frozen sections to detect and count the number of cells in conjunctival epithelium that stained positively for CD4, a biotinylated secondary antibody and NovaRED peroxidase. Positively stained cells were counted in the conjunctiva using Nikon imaging software.

[1] = test system: conjunctival goblet cells (GC); assay: Conjunctival goblet cell density measurement, dry eye; type: in vivo, mouse; settings: superior and inferior conjunctiva; FIG. 4 and 6
Procedure: In FIGS. 4 and 6, conjunctival goblet cells (GC) measurement is performed as follows. Enucleated mouse eyes with intact conjunctiva were fixed in 10% formalin and embedded in paraffin. Six-micrometer sections were stained with periodic acid-Schiff reagent.

SMILES | dry eye induced CD4+ T-cells infiltration (CD4+ T cells) | dry eye induced loss of goblet cell density [1]
CCCCCCCCCCCCCCCC(=O)NCCOCCOCCOCCOCCOCCOCCOCCOCCC(=O)NCC(=O)NCC(=O)N[C@H](Cc1ccc(O)cc1)C(=O)N[C@@H](Cc1ccccc1)C(=O)N[C@@H](CC(C)C)C(=O)N1CCC[C@H]1C(=O)N[C@H](CO)C(=O)N[C@@H](CCC(N)=O)C(=O)N[C@@H](Cc1ccccc1)C(=O)N[C@H](C)C(=O)N1Cc2ccccc2C[C@H]1C(=O)N[C@@H](CO)C(=O)O [OK-101, Gly-Gly-dTyr-Phe-Leu-Pro-dSer-Gln-Phe-dAla-Tic-Ser] ({Palmitoyl-PEG8}-GG[dY]FLP[dS]QF[dA][Tic]S-OH) | significantly reduced | normalized
CCCCCCCCCCCCCCCC(=O)NCCOCCOCCOCCOCCOCCOCCOCCOCCC(=O)N[C@@H](CCC)C(=O)NCC(=O)N[C@H](Cc1ccc(O)cc1)C(=O)N[C@@H](Cc1ccccc1)C(=O)N[C@@H](CCCC)C(=O)N1CCC[C@H]1C(=O)N[C@H](CO)C(=O)N[C@@H](CCC(N)=O)C(=O)N[C@@H](Cc1ccccc1)C(=O)N[C@H](C)C(=O)N1Cc2ccccc2C[C@H]1C(=O)N[C@H](C)C(=O)O [OK-113, NorV-Gly-dTyr-Phe-Nle-Pro-dSer-Gln-Phe-dAla-Tic-dAla] ({Palmitoyl-PEG8}-[Nva]G[dY]F[Nle]P[dS]QF[dA][Tic][dA]-OH) | significantly reduced | normalized
